Laboratory results published in ChEMBL document CHEMBL1153272, “(2-Aryl-5-methylimidazol-4-ylcarbonyl)guanidines and (2-aryl-5-methyloxazol-4-ylcarbonyl)guanidines as NHE-1 inhibitors” (Bioorg Med Chem Lett, 2009).

Columns and labels:
[1] = target: Sodium/hydrogen exchanger 1 (Homo sapiens, UniProt P19634); test: Inhibition of human NHE1 expressed in PS120 cells assessed as imposed acidosis; type: cell-based
Heart [2] = test: Cardioprotective activity in Langendorff perfused rat heart assessed as recovery of rate pressure product at 10 uM treated 10 mins before global ischemia challenge for 30 mins followed by 30 mins of reperfusion; type: functional
Heart [3] = test: Cardioprotective activity in Langendorff perfused rat heart assessed as left ventricular end diastolic pressure at 10 uM treated 10 mins before global ischemia challenge for 30 mins followed by 30 mins of reperfusion; type: functional
Rattus norvegicus = test: Cardioprotective activity in Langendorff perfused rat myocardial infarction model assessed as ratio of myocardial infarction size to area at risk at 0.1 mg/kg, iv administered 5 mins before onset ischemia challenge followed by 90 mins reperfusion; type: functional, Myocardium

Sequence of Sodium/hydrogen exchanger 1 (P19634 whole entry, the tested form may be a part): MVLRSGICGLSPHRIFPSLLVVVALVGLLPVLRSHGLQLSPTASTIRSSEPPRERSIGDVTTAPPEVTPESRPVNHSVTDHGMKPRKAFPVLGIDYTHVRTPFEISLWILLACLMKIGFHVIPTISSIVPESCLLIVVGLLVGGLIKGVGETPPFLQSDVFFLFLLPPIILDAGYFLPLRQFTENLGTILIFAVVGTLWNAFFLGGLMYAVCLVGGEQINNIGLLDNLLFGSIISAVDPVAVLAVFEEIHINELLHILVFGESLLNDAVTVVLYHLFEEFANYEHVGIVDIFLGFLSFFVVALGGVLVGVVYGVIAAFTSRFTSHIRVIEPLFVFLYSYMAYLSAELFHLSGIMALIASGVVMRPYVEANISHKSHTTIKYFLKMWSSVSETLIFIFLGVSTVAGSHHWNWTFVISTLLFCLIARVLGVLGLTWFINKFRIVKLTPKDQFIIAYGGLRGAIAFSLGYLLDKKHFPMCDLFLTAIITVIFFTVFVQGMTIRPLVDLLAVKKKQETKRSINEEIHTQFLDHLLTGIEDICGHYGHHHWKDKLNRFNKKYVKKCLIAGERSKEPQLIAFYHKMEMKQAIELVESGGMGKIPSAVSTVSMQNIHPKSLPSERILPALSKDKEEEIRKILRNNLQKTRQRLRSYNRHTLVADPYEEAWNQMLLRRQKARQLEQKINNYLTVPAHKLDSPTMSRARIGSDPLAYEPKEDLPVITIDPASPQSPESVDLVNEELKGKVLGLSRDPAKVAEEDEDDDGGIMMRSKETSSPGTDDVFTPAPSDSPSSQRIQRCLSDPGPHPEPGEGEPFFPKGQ

Compound	IC50 [1] [µM]	Activity (Heart [2]) [%]	Activity (Heart [3]) [%]	Activity (Rattus norvegicus) [%]
COc1cccc(-c2nc(C(=O)N=C(N)N)c(C)[nH]2)c1OC	> 30	–	–	–
Cc1oc(-c2cccc(F)c2)nc1C(=O)N=C(N)N	4.2	–	–	–
COc1ccc(Cl)cc1-c1nc(C(=O)N=C(N)N)c(C)[nH]1.CS(=O)(=O)O.CS(=O)(=O)O	0.24	60	28	34
COc1ccc(F)cc1-c1nc(C(=O)N=C(N)N)c(C)[nH]1.CS(=O)(=O)O.CS(=O)(=O)O	0.8	27	29	–
Cc1oc(-c2ccccc2)nc1C(=O)N=C(N)N	8.2	–	–	–
Cc1oc(-c2cc(F)cc(F)c2)nc1C(=O)N=C(N)N	3.3	–	–	–
CS(=O)(=O)O.Cc1[nH]c(-c2cc(Cl)cc(Cl)c2)nc1C(=O)N=C(N)N	0.52	23	28	–
CS(=O)(=O)O.CS(=O)(=O)O.Cc1ccc(C)c(-c2nc(C(=O)N=C(N)N)c(C)[nH]2)c1	1.1	33	32	45
Cc1oc(-c2cc(F)ccc2F)nc1C(=O)N=C(N)N	2.8	–	–	–
CS(=O)(=O)O.CS(=O)(=O)O.Cc1[nH]c(-c2cc(Cl)ccc2Cl)nc1C(=O)N=C(N)N	0.1	59	25	40
CS(=O)(=O)O.CS(=O)(=O)O.Cc1[nH]c(-c2ccccc2Cl)nc1C(=O)N=C(N)N	1.4	69	35	50
Cc1oc(-c2ccc(Cl)cc2)nc1C(=O)N=C(N)N	> 30	–	–	–
CC(C)c1ccc(C(=O)N=C(N)N)cc1S(C)(=O)=O.CS(=O)(=O)O [CARIPORIDE MESYLATE]	–	48	22	41
CS(=O)(=O)O.Cc1ccc(C)c(-c2nc(C(=O)N=C(N)N)c(C)o2)c1	0.22	59	9	47
CS(=O)(=O)O.Cc1oc(-c2cc(Cl)cc(Cl)c2)nc1C(=O)N=C(N)N	0.89	26	25	–
Cc1[nH]c(-c2cc(F)ccc2F)nc1C(=O)N=C(N)N	3	–	–	–
CS(=O)(=O)O.Cc1oc(-c2cc(Cl)ccc2Cl)nc1C(=O)N=C(N)N	0.072	19	27	39
Cc1[nH]c(-c2cc(F)cc(F)c2)nc1C(=O)N=C(N)N	2.7	–	–	–
Cc1cc(C)cc(-c2nc(C(=O)N=C(N)N)c(C)o2)c1	7.1	–	–	–
Cc1oc(-c2cccc(Cl)c2)nc1C(=O)N=C(N)N	1.7	–	–	–

Further lines, with some results ahead:

IC50 [1] [µM]	Compound	Activity (Heart [2]) [%]	Activity (Heart [3]) [%]	Activity (Rattus norvegicus) [%]
6.6	Cc1[nH]c(-c2cccc(F)c2F)nc1C(=O)N=C(N)N	–	–	–
12	Cc1cccc(-c2nc(C(=O)N=C(N)N)c(C)[nH]2)c1	–	–	–
6.6	Cc1cccc(-c2nc(C(=O)N=C(N)N)c(C)o2)c1	–	–	–
5	Cc1cc(C)cc(-c2nc(C(=O)N=C(N)N)c(C)[nH]2)c1	–	–	–
4.5	Cc1[nH]c(-c2cccc(Cl)c2)nc1C(=O)N=C(N)N	–	–	–
> 30	Cc1[nH]c(-c2ccc(Cl)cc2)nc1C(=O)N=C(N)N	–	–	–
12	Cc1[nH]c(-c2ccccc2)nc1C(=O)N=C(N)N	–	–	–
> 30	Cc1cccc(-c2nc(C(=O)N=C(N)N)c(C)[nH]2)c1C	–	–	–
> 30	COc1ccc(-c2nc(C(=O)N=C(N)N)c(C)[nH]2)cc1	–	–	–
3.1	COc1ccccc1-c1nc(C(=O)N=C(N)N)c(C)[nH]1	–	–	–
7.2	Cc1[nH]c(-c2ccccc2F)nc1C(=O)N=C(N)N	–	–	–
2.1	COc1ccc(-c2nc(C(=O)N=C(N)N)c(C)[nH]2)cc1OC	–	–	–
0.5	Cc1[nH]c(-c2cccc(Cl)c2Cl)nc1C(=O)N=C(N)N	–	–	–
> 30	Cc1ccc(-c2nc(C(=O)N=C(N)N)c(C)[nH]2)cc1	–	–	–
4.5	Cc1[nH]c(-c2cccc(F)c2)nc1C(=O)N=C(N)N	–	–	–
2.4	Cc1ccccc1-c1nc(C(=O)N=C(N)N)c(C)[nH]1	–	–	–
> 30	Cc1[nH]c(-c2ccc(F)cc2)nc1C(=O)N=C(N)N	–	–	–
4.1	COc1cccc(-c2nc(C(=O)N=C(N)N)c(C)[nH]2)c1	–	–	–
